According to patent publication US20070293486A1, “Alpha-Keto Carbonyl Calpain Inhibitors” (SANTHERA PHARMACEUTICALS (SCHWEIZ) AG, priority 2004, published 2007):

Columns and labels:
human μ-calpain = target: T1, human μ-calpain (Homo sapiens, UniProt P07384); assay: Enzymatic Calpain Inhibition Assay; type: biochemical; conditions: enzymatic calpain I inhibition; read-out: Calp I IC50
T1 construct: purchased Calbiochem
T1 sequence (P07384 1-714): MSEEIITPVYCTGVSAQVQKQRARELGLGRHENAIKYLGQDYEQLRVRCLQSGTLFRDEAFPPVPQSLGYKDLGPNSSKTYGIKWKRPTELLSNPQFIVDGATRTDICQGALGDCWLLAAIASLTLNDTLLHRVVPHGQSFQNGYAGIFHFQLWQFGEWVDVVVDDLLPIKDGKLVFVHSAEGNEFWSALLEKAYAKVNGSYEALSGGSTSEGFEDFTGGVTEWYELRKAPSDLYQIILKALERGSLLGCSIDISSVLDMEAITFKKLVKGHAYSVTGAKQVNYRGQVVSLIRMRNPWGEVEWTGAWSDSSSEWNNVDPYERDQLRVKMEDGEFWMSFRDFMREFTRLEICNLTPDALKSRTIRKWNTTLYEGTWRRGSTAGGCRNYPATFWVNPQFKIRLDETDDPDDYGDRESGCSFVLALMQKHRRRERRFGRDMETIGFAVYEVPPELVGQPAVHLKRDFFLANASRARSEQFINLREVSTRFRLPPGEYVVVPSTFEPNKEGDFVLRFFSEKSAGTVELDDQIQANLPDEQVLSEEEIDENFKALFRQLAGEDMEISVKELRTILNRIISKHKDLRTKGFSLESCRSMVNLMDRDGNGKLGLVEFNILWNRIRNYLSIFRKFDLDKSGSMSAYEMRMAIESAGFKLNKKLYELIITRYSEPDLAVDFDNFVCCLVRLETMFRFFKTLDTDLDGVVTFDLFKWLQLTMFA
T1 sequence (P04632 1-268 partner): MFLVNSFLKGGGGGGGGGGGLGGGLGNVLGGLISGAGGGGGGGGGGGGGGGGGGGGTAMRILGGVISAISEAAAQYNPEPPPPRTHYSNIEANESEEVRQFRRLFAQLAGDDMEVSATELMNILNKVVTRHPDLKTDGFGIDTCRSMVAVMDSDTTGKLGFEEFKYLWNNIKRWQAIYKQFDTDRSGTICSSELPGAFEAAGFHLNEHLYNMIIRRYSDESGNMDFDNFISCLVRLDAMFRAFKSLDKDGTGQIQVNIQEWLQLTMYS
Method: The Ki value was also determined in some cases. These criteria were used to measure the inhibitory effect of the compounds (I) on calpain I, calpain II and cathepsin B.
The inhibitory properties of calpain inhibitors are tested in 100 μl of a buffer containing 100 mM imidazole pH 7.5, 5 mM L-Cystein-HCl, 5 mM CaCl2, 250 μM of the calpain fluorogenic substrate Suc-Leu-Tyr-AMC (Sigma) (Sasaki et al., J. Biol. Chem., 1984, 259, 12489-12949) dissolved in 2.5 μl DMSO and 0.5 μg of human μ-calpain (Calbiochem). The inhibitors dissolved in 1 μl DMSO are added to the reaction buffer. The fluorescence of the cleavage product 7-amino-4-methylcoumarin (AMC) is followed in a SPECTRAmax GEMINI XS (Molecular Device) fluorimeter at λex=360 nm and λem=440 nm at 30° C. during 30 min at intervals of 30 sec in 96-well plates (Greiner). The initial reaction velocity at different inhibitor concentrations is plotted against the inhibitor concentration and the IC50 values determined graphically.

[1] = test system: utrophin protein levels in human DMD myotubes; assay: Utrophin Expression Assay in Human Myotubes; type: cell-based; conditions: 50 nM test compound
Method: Utrophin induction was determined by a method which was similar to a method of 1. Courdier-Fruh et al., Neuromuscular Disord., 2002, 12, S95-S104. Primary human muscle cell cultures were prepared from muscle biopsies taken during orthopedic surgery from Duchenne patients (provided by the Association Francaise contre les Myopathies). Cultures were prepared and maintained according to standard protocols. Induction of utrophin expression in human DMD myotubes was assayed at 50 nM or 500 nM of test compound added in differentiation medium. Normalized utrophin protein levels are determined after 56 d of incubation by cell-based ELISA with a mouse monoclonal antibody to the aminoterminal portion of utrophin (NCL-DRP2, Novocastra Laboratories). For calibration, the cell density and differentiation was determined by absorbance measurements of the total dehydrogenase enzyme activity in each well using the calorimetric CellTiter 96®AQ One Solution Reagent Proliferation Assay (Promega) according to the manufacturer's recommendation. Subsequently, cells were fixed, washed, permeabilized with 0.5% (v/v) Triton X-100 and unspecific antibody binding-sites blocked by standard procedures. Utrophin protein levels were determined immunologically with utrophin-specific primary antibody and with an appropriate peroxidase-coupled secondary antibody (Jackson ImmunoResearch Laboratories) using QuantaBlu™ Fluorogenic Peroxidase Substrate Kit (Pierce) for detection. Fluorescence measurements were carried out with a multilabel counter (Wallac) at λex=355 nm and at λem=460 nm. The primary readout of this signal is presented in arbitrary units. For calibration, the arbitrary units representing the relative utrophin protein content of each well was divided by the corresponding cell-titer absorbance value to correct for cell density. For comparison between experiments, the cell-titer corrected readout for utrophin protein content in each well was expressed in percent of solvent treated control cultures (set to 100%), i.e. data are % utrophin protein levels compared to DMSO solvent (N=4).

## CCNC(=O)C(=O)[C@H](Cc1ccc(Cl)cc1)NC(=O)[C@@H](NC(=O)[C@H](Cc1ccccc1)NC(=O)CCCCC1CCS[S+]1[O-])C(C)C (stereo partly shown) [Example 2]
Human μ-calpain
  IC50: 38 nM

## CCNC(=O)C(=O)C(Cc1ccc(OC)cc1)NC(=O)C(CC(C)C)NC(=O)C(Cc1cccc2ccccc12)NC(=O)CCCCC1CCSS1 (stereo not shown) [Example 637]
other
  melting point: 188 to 190 °C
[1]
  UTR Induction @50 nM: 121%
Human μ-calpain
  IC50: 30 nM
